Key:
[1] = Brain penetration in mice; type: in vivo; conditions: for brain permeability / brain penetration: 5 mg/kg IP; for Kp at 60 min: mouse, brain and plasma, ip
[2] = Oral pharmacokinetics in mice; type: in vivo; conditions: oral gavage 50 mg/kg

Row | brain permeability / brain penetration ([1]; mice) | brain levels ([1]; mice, 60 min after IP injection, 5 mg/kg) | Kp at 60 min ([1]; 5 mg/kg) | plasma exposure [2] | Compound
1 | poor | undetectable |  |  | Clc1cc(Br)cc(CN[C@H]2CCCN(c3nc4nc(Cl)ccc4[nH]3)C2)c1 [Compound 5b]
2 |  |  | 0.044 ± 0.006 |  | CCOc1c(Br)cc(Br)cc1CN[C@H]1CCCN(c2nc3nc(Cl)ccc3[nH]2)C1 [Compound 5p]
3 | moderately good brain penetration |  | 0.191 ± 0.075 | low plasma exposure | CN(CCN[C@@H]1CCNc2c(Cl)cc(Cl)cc21)c1nc2nc(Cl)ccc2[nH]1 [Compound 13]

From article PMC5542777 (Bioorganic & medicinal chemistry letters, 2017)
